44 molecules from the supplement of paper PMC5412046 can be followed below.

Each structure is given as a SMILES string. Structures can show the parent of a compound that is named as a salt.

One experiment has as its system SB.msgc-1. Description: AC50 for growth inhibition (viability) (log10 M); higher = less potent. The following applies: SB.msgc-1 (sporadic gastric cancer). An outline of the steps: (§1)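 Compound dissolved in DMSO was transferred by pintool, 23 nL per 1536 well, onto 500 hereditary or sporadic patient-derived gastric cancer cells in 5 μL medium. The series spanned 11 threefold dilutions, the highest at a final 46 μM. At 48 h, a 30 min room-temperature incubation with CellTiter-Glo preceded luminescence measurement on a ViewLux. The log half-maximal activity concentration was fitted by a four-parameter model to DMSO-normalised viability, with only high-quality curve classes accepted.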

A further experiment deals with SB.mhdgc-1. Described as above. The following applies: SB.mhdgc-1 (hereditary c.1380delA CDH1 gastric cancer). The method in brief: as §1

For `CCN(CC)C(=S)SSC(=S)N(CC)CC` [Disulfiram], the “AC50 for growth inhibition (log10 M)” value with SB.msgc-1 was -7.28; in the experiment with SB.mhdgc-1, -7.78.
Consider `c1cc(-c2cnn3cc(-c4ccc(OCCN5CCCCC5)cc4)cnc23)ccn1` [Dorsomorphin], for which the “AC50 for growth inhibition (log10 M)” value is -4.78 in the experiment on SB.msgc-1 and -4.83 in the experiment on SB.mhdgc-1.
As to `CCOC(=O)N1CCN(/[N+]([O-])=N/Oc2cc(O/N=[N+](\[O-])N3CCN(C(=O)OCC)CC3)c([N+](=O)[O-])cc2[N+](=O)[O-])CC1` [Double JS-K], the entries for the “AC50 for growth inhibition (log10 M)” value in the experiment with SB.msgc-1 and with SB.mhdgc-1 were -4.63 and -5.03, respectively.
On to `CN1CCN(CC1)C2=CC3=C([NH]C(=N3)C/4=C(\N)C5=C(F)C=CC=C5NC4=O)C=C2` [Dovitinib], for which the “AC50 for growth inhibition (log10 M)” value with SB.msgc-1 was -4.73; with SB.mhdgc-1 it was -4.78.
Regarding `C=C1/C(=C\C=C2/CCC[C@]3(C)[C@@H]([C@H](C)/C=C/[C@H](C)C(C)C)CC[C@@H]23)C[C@@H](O)C[C@@H]1O` [Doxercalciferol], the “AC50 for growth inhibition (log10 M)” value in the experiment with SB.msgc-1 was -6.23; in the experiment with SB.mhdgc-1, -6.73.
Take `C[C@H]1O[C@H]([C@H](O)[C@@H]1O)N2\C=C(F)/C(=O)NC2=O` [Doxifluridine]: the “AC50 for growth inhibition (log10 M)” value in the experiment with SB.msgc-1 was -5.33; in the experiment on SB.mhdgc-1 it was -6.18.
`COc1cccc2c1C(=O)c1c(O)c3c(c(O)c1C2=O)C[C@@](O)(C(=O)CO)C[C@@H]3O[C@H]1C[C@H](N)[C@H](O)[C@H](C)O1` [Doxorubicin]: the “AC50 for growth inhibition (log10 M)” value with SB.msgc-1 was -6.43; in the experiment with SB.mhdgc-1 it was -7.33.
Turning to `CCCCc1oc2ccc(NS(C)(=O)=O)cc2c1C(=O)c1ccc(OCCCN(CCCC)CCCC)cc1` [Dronedarone], the entries for the “AC50 for growth inhibition (log10 M)” value in the experiment with SB.msgc-1 and with SB.mhdgc-1 were -4.63 and -4.73, respectively.
As for `Cc1cc(Cl)ccc1OCCCC(=O)NO` [Droxinostat], the “AC50 for growth inhibition (log10 M)” value with SB.msgc-1 was -4.83; in the experiment with SB.mhdgc-1, -5.98.
With `CNCC[C@H](Oc1cccc2ccccc12)c1cccs1` [Duloxetine hydrochloride], the “AC50 for growth inhibition (log10 M)” value is -5.58 with SB.msgc-1 and -5.53 with SB.mhdgc-1.
Turning to `C[C@]12CC[C@H]3[C@@H](CC[C@H]4NC(=O)\C=C/[C@]34C)[C@@H]1CC[C@@H]2C(=O)NC5=CC(=CC=C5C(F)(F)F)C(F)(F)F` [Dutasteride], the “AC50 for growth inhibition (log10 M)” value was -4.93 in the experiment on SB.msgc-1 and -4.78 in the experiment with SB.mhdgc-1.
The like results for `CCOc1cc2c(c(F)c1OCC)C(=N)N(CC(=O)c1cc(N3CCOCC3)c(OC)c(C(C)(C)C)c1)C2` [E5555] were, in that order, -4.68 and -5.03.
For `COc1ccc([S+](=O)([O-])Nc2cccnc2Nc2ccc(O)cc2)cc1` [E-7010] the same measures were -6.93 and -5.83.
For `Cc1ccccc1C(=O)c1ccc(Nc2ccc(Br)cc2N)cc1Cl` [EO-1428] the same measures were -4.78 and -4.93.
Take `CC1(C)C(N(O)C(=O)Nc2ccc(Cl)cc2)N(c2ccc(Cl)cc2)C(=O)N1CC(=O)N/N=C/C=C/c1ccc([N+](=O)[O-])o1` (stereo not drawn) [Eeyarestatin I]: the entries for the “AC50 for growth inhibition (log10 M)” value in the experiment with SB.msgc-1 and in the experiment with SB.mhdgc-1 were -5.03 and -5.08, respectively.
For the molecule `CCC(=C/[C@H](C)C/C=C/C(C)=C/[C@@H](C)C(=O)[C@@H](C)[C@H](O)[C@@H](C)C/C(C)=C/C(=O)O)/C=C/[C@@H]1OC(=O)C=C[C@@H]1C` [Elactocin], the “AC50 for growth inhibition (log10 M)” value is -7.06 in the experiment with SB.msgc-1 and -7.66 with SB.mhdgc-1.
Consider `COC1=CC2=C(C=C1CC3=C(F)C(=CC=C3)Cl)C(=O)\C(=C/N2[C@H](CO)C(C)C)C(O)=O` [Elvitegravir], for which the results for the “AC50 for growth inhibition (log10 M)” value in the experiment with SB.msgc-1 and in the experiment with SB.mhdgc-1 were -4.68 and -4.78, respectively.
`CC[C@H]1CN2CCc3cc(OC)c(OC)cc3[C@@H]2C[C@@H]1C[C@H]1NCCc2cc(OC)c(OC)cc21` [Emetine]: the “AC50 for growth inhibition (log10 M)” value in the experiment with SB.msgc-1 is -6.83; with SB.mhdgc-1, -5.68.
For `NC/1=N/C(=O)C2=C(N1)[N](C=N2)[C@@H]3C[C@H](O)[C@@H](CO)C3=C` [Entecavir] the same measures were -5.28 and -4.78.
Take `Nc1ccccc1NC(=O)c1ccc(CNC(=O)OCc2cccnc2)cc1` [Entinostat]: the “AC50 for growth inhibition (log10 M)” value in the experiment on SB.msgc-1 is -5.88; in the experiment on SB.mhdgc-1, -4.83.
As for `C[N]1C=C(C2=CC=CC=C12)\C3=C(\C(=O)NC3=O)C4=C[N](C5CCN(CC5)CC6=NC=CC=C6)C7=C4C=CC=C7` [Enzastaurin], the “AC50 for growth inhibition (log10 M)” value in the experiment on SB.msgc-1 and in the experiment on SB.mhdgc-1 was -4.98 in each case.
On to `COc1cccc2c1C(=O)c1c(O)c3c(c(O)c1C2=O)C[C@@](O)(C(=O)CO)C[C@@H]3O[C@H]1C[C@H](N)[C@@H](O)[C@H](C)O1` [Epirubicin hydrochloride], for which the “AC50 for growth inhibition (log10 M)” value in the experiment on SB.msgc-1 was -6.18; with SB.mhdgc-1 it was -6.93.
For `C#Cc1cccc(Nc2ncnc3cc(OCCOC)c(OCCOC)cc23)c1` [Erlotinib hydrochloride], the “AC50 for growth inhibition (log10 M)” value in the experiment with SB.msgc-1 was -5.63; in the experiment on SB.mhdgc-1, -6.38.
Regarding `C[C@]12CC[C@@H]3c4ccc(O)cc4CC[C@H]3[C@@H]1[C@@H](O)[C@@H](O)[C@@H]2O` [Estetrol], the “AC50 for growth inhibition (log10 M)” value in the experiment on SB.msgc-1 is -4.68; in the experiment with SB.mhdgc-1, -4.88.
As for `C[C@]12CC[C@@H]3c4ccc(O)cc4CC[C@H]3[C@@H]1CC[C@@H]2O` [Estradiol], the “AC50 for growth inhibition (log10 M)” value in the experiment with SB.msgc-1 was -4.93; in the experiment on SB.mhdgc-1 it was -5.28.
As for `C#C[C@]1(O)CC[C@H]2[C@@H]3CCc4cc(O)ccc4[C@H]3CC[C@@]21C` [Ethinylestradiol], the results for the “AC50 for growth inhibition (log10 M)” value in the experiment with SB.msgc-1 and in the experiment on SB.mhdgc-1 were -4.83 and -4.78, respectively.
For `CCC(=O)N[C@H]1CC[C@H](C(=O)N(C)c2ccc(-c3nc4ccccc4o3)cc2)C1` [FASN BI] the same measures were -5.93 and -5.93.
For the molecule `O=C1c2ccccc2-[n+]2ccc3c([nH]c4ccccc43)c21` [Fascaplysin], the figures for the “AC50 for growth inhibition (log10 M)” value in the experiment with SB.msgc-1 and in the experiment on SB.mhdgc-1 were -6.18 and -5.93, respectively.
As to `COC(=O)Nc1nc2cc(Sc3ccccc3)ccc2[nH]1` [Fenbendazole], the figures for the “AC50 for growth inhibition (log10 M)” value with SB.msgc-1 and with SB.mhdgc-1 were -5.53 and -6.63, respectively.
Turning to `CC1=C(/C=C/C(C)=C/C=C/C(C)=C/C(=O)Nc2ccc(O)cc2)C(C)(C)CCC1` [Fenretinide], the entries for the “AC50 for growth inhibition (log10 M)” value in the experiment on SB.msgc-1 and in the experiment on SB.mhdgc-1 were -4.52 and -4.67, respectively.
As to `CC(C)(C)NC(=O)[C@H]1CC[C@H]2[C@@H]3CC[C@H]4NC(=O)\C=C/[C@]4(C)[C@H]3CC[C@]12C` [Finasteride], the “AC50 for growth inhibition (log10 M)” value in the experiment on SB.msgc-1 was -5.78; in the experiment with SB.mhdgc-1, -6.23.
For `O=C(NCC1CCCCN1)c1cc(OCC(F)(F)F)ccc1OCC(F)(F)F` (stereo not drawn) [Flecainide] the same measures were -5.03 and -5.03.
With `OC[C@H]1O[C@H](C[C@@H]1O)N2\C=C(F)/C(=O)NC2=O` [Floxuridine], the entries for the “AC50 for growth inhibition (log10 M)” value in the experiment on SB.msgc-1 and in the experiment on SB.mhdgc-1 were -6.48 and -7.78, respectively.
Turning to `COC(=O)Nc1nc2cc(C(=O)c3ccc(F)cc3)ccc2[nH]1` [Flubendazole], the “AC50 for growth inhibition (log10 M)” value in the experiment on SB.msgc-1 was -6.23; with SB.mhdgc-1, -5.23.
The like results for `Nc1nc(F)nc2c1ncn2[C@@H]1O[C@H](COP(=O)(O)O)[C@@H](O)[C@@H]1O` [Fludarabine phosphate] were, in that order, -4.98 and -5.13.
As to `CC1(C)O[C@@H]2C[C@H]3[C@@H]4C[C@H](F)C5=CC(=O)C=C[C@]5(C)[C@@]4(F)[C@@H](O)C[C@]3(C)[C@]2(C(=O)CO)O1` [Fluocinolone acetonide], the “AC50 for growth inhibition (log10 M)” value in the experiment with SB.msgc-1 is -4.93; with SB.mhdgc-1 it was -5.33.
For `F\C1=C\NC(=O)NC1=O` [Fluorouracil], the figures for the “AC50 for growth inhibition (log10 M)” value in the experiment with SB.msgc-1 and in the experiment on SB.mhdgc-1 were -5.28 and -6.43, respectively.
As to `OCCN1CCN(CCCN2c3ccccc3Sc3ccc(C(F)(F)F)cc32)CC1` [Fluphenazine hydrochloride], the figures for the “AC50 for growth inhibition (log10 M)” value in the experiment with SB.msgc-1 and in the experiment with SB.mhdgc-1 were -4.78 and -4.83, respectively.
On to `CC(C)C(=O)Nc1ccc([N+](=O)[O-])c(C(F)(F)F)c1` [Flutamide], for which the “AC50 for growth inhibition (log10 M)” value in the experiment with SB.msgc-1 was -5.63; in the experiment on SB.mhdgc-1, -5.83.
For `COCCCC/C(=N\OCCN)c1ccc(C(F)(F)F)cc1` [Fluvoxamine maleate], the figures for the “AC50 for growth inhibition (log10 M)” value in the experiment with SB.msgc-1 and in the experiment on SB.mhdgc-1 were -4.88 and -4.63, respectively.
As for `Cc1cn[nH]c1` [Fomepizole], the “AC50 for growth inhibition (log10 M)” value in the experiment on SB.msgc-1 was -7.18; in the experiment on SB.mhdgc-1 it was -6.68.
On to `COc1cc2c(Oc3ccc(NC(=O)C4(C(=O)Nc5ccc(F)cc5)CC4)cc3F)ccnc2cc1OCCCN1CCOCC1` [Foretinib], for which the entries for the “AC50 for growth inhibition (log10 M)” value with SB.msgc-1 and with SB.mhdgc-1 were -4.73 and -4.83, respectively.
As for `COc1cc(Nc2ncc(F)c(Nc3ccc4c(n3)N(COP(=O)(O)O)C(=O)C(C)(C)O4)n2)cc(OC)c1OC` [Fostamatinib disodium], the “AC50 for growth inhibition (log10 M)” value in the experiment on SB.msgc-1 was -5.93; with SB.mhdgc-1 it was -5.33.
As to `C[C@@H]1O[C@@H](O[C@H]2C[C@@H](O)[C@]3(CO)[C@H]4[C@H](O)C[C@]5(C)[C@@H](C6=CC(=O)OC6)CC[C@]5(O)[C@@H]4CC[C@]3(O)C2)[C@H](O)[C@H](O)[C@H]1O` [G-Strophanthin], the “AC50 for growth inhibition (log10 M)” value in the experiment on SB.msgc-1 was -7.38; in the experiment with SB.mhdgc-1, -6.98.
